# In patent US10010494B2, “Methods for the treatment of hyperhidrosis” (priority 2005, dated 2018):
# System: patient suffering from hyperhidrosis
# Assay: Oral sulpiride given to a patient suffering from hyperhidrosis
# Type: in vivo, human
# Settings: 200 mg daily
# Description: A dose of 200 mg Sulpiride was administered to a patient suffering from hyperhidrosis.
structure (smiles),measurement,value
"CCN1CCCC1CNC(=O)c1cc(S(N)(=O)=O)ccc1OC (stereo not drawn) [Sulpiride, N-[(1-ethylpyrrolidin-2-yl)methyl]-2-methoxy-5-sulfamoyl-benzamide]",duration of reduction in sweating,lasted for as long as the patient took a daily pill
same,effect on sweating,reduction in sweating
same,onset of reduction in sweating after beginning taking the drug,72 h
